Reference: paper PMC9664868, “Dephospho-Coenzyme A Kinase Is an Exploitable Drug Target against Plasmodium falciparum: Identification of Selective Inhibitors by High-Throughput Screening of a Large Chemical Compound Library” (Antimicrobial Agents and Chemotherapy, 2022)
“Also recorded” adds a separate entry of the source.

Key:
[1] = test system: HepG2 cell line; assay: Cytotoxicity assay (Cell Counting Kit-8); assay type: cell-based, human; details: Homo sapiens, HepG2; Table S1; means ± SEM; read-out: IC50 (μM) HepG2
Description: Cytotoxicity against human cells was evaluated using the human liver carcinoma HepG2 cell line. HepG2 cells were cultured in D-MED supplemented with 4 mM L-glutamine and 10% fetal bovine serum (FBS) in a 75-cm^2 flask (Violamo) at 37°C. For the cytotoxicity assay, HepG2 cells in semiconfluent state were detached from the flask by incubating the cells with 5 mL D-MEM containing 0.25% trypsin-EDTA. After detachment, HepG2 cells were resuspended in D-MEM-supplemented L-glutamine and FBS, and cell viability was evaluated by incubating cells with 0.4% Trypan blue on a hemocytometer. An approximately 50-μL suspension containing 3,000 cells was dispensed into each well on a 384-well clear-bottom plate using a Multidrop Combi dispenser. Compounds dissolved in DMSO had been dispensed into wells to yield final concentrations of 100, 20, 4, 0.8, and 0.2 μM before cells were added. After cells were added to the plates, they were cultured at 37°C under 5% CO2. After 48 h cultivation, 5 μL of Cell Counting Kit-8 (Dojindo, Japan) was added, and the plates were further incubated for 2 h to assess cell growth and survival.

[2] = target: PfDPCK (Plasmodium falciparum, UniProt Q8IL34); assay: Mechanism of PfDPCK inhibition by Lineweaver-Burk plot; assay type: biochemical
Description: In order to understand the mechanism of PfDPCK inhibition of the identified compounds, we independently selected compounds from 359 PfDPCK-specific inhibitor candidates (showing >40% inhibition at 10 μM against PfDPCK), based on the more stringent criteria of >80% inhibition at 10 μM against PfDPCK and <10% inhibition against HsCOASY, to yield 30 hits. The hits were prioritized using a multiparameter optimization (MPO) scoring model, developed by MMV (https://www.optibrium.com/downloads/scoring-profiles/mmv-antimalarial-scoring-profile/) based on calculated physicochemical properties, including molecular weight, logP, hydrogen bond donors and acceptors, rotatable bonds, and structural alerts ([20], [21]). We finally chose six representative compounds (A-15, A-33, and A-69, shown in Table S1, and other three compounds; A-126, A-127, and A-128) by manual inspection with “chemist eye” for chemical attractiveness (druglikeness). […] Furthermore, two compounds, A-33 and A-69, are considered to be pan-assay interference compounds (PAINS) (phenolic Mannich base) ([22]). We consequently focused on two commercially available compounds (A-15 and A-127) (Fig. 6A) and investigated their mechanism of inhibition. We differentiated the type of inhibition by Lineweaver-Burk plot with various concentrations of one substrate (dephospho-CoA or ATP), while the other substrate was given in saturating concentrations in kinetic studies (Fig. 5).
FIG 5 Lineweaver-Burk plots showing inhibition of two compounds, compound A-15 (A, B) and compound A-127 (C, D) on the PfDPCK activity. The enzymatic activities were determined with various concentrations of dephospho-CoA and 200 μM ATP (A, C) or various concentrations of ATP and 200 μM dephospho-CoA (B, D) in the presence of a range of concentrations of inhibitors. Data are shown in means ± SEMs of triplicate.
PfDPCK and HsCOASY activity was measured by quantifying ADP produced in the reaction by a coupling assay using the ADP Hunter Plus assay kit (DiscoverX, USA) according to the manufacturer's instructions. Briefly, enzymatic reactions were carried out in a 20-μL mixture of assay buffer containing 15 mM HEPES, 20 mM NaCl, 1 mM EGTA, 0.02% Tween 20, 10 mM MgCl2, 0.1% bovine gamma globulin, 50 ng of recombinant PfDPCK or HsCOASY, 4 to 256 μM dephospho-CoA, and 5 to 300 μM ATP on a black microplate. All reactions were performed for 2 h, reagents A and B were added, and they were then reincubated for 60 min at 30°C. After reactions were terminated by addition of ADP Hunter Stop solution, the fluorescent signal was measured using SpectraMax Paradigm (Molecular Devices, CA, USA) at excitation and emission wavelengths of 530 and 590 nm, respectively. The kinetic parameters were calculated using the nonlinear regression function using the single saturating concentrations of the substrates by the GraphPad Prism software (GraphPad Software Inc., San Diego, CA). The experiments were repeated three times in triplicate using proteins purified from independent cultures. Kinetic values of enzymes are presented as the means ± standard errors (SEs).

PfDPCK, sequence (Q8IL34 entry or part of it): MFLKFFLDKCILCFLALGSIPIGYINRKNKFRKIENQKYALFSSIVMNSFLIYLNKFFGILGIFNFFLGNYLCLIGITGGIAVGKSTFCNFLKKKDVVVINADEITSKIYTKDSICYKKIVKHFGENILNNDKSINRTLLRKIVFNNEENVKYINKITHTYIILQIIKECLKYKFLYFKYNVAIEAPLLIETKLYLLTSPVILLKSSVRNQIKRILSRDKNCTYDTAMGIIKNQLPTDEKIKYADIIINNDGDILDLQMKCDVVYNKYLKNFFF

**Q.** Which IC50 [1] does the source give for `CC(C)(C)c1cc(C(=O)Cn2c(NCCO)nc3ccccc32)cc(C(C)(C)C)c1O` [Compound A-15] here?
**A.** The IC50 was 29.9 ± 3.61 µM.

**Q.** And the Ki ([2]; in respect of ATP, 200 μM dephospho-CoA)?
**A.** Its Ki is 10.4 µM.

**Q.** And the type of inhibition ([2]; in respect of dephospho-CoA and ATP, Lineweaver-Burk plot)?
**A.** Its type of inhibition is “competitively inhibits; also recorded: competitive inhibition”.

**Q.** And the Ki ([2]; in respect of dephospho-CoA, 200 μM ATP)?
**A.** The Ki was 0.47 µM.
